Results as given in ChEMBL document CHEMBL1143183, “New polyphenols active on beta-amyloid aggregation” (Bioorg Med Chem Lett, 2008).

Experiments:
[1] = Inhibition of beta amyloid 25-35 fibril formation at 10 uM
[2] = Inhibition of beta amyloid 25-35 fibril formation

| Structure (SMILES) | inhibition [1] | EC50 [2] |
| --- | --- | --- |
| O=C(O[C@@H]1Cc2c(O)cc(O)cc2O[C@@H]1c1ccc(O)c(O)c1)c1cc(O)c(O)c(O)c1 | 13% | – |
| Oc1cc(O)c2cc(O)c(-c3ccc(O)c(O)c3)[o+]c2c1 | 35% | – |
| Oc1cc(O)c2cc(O)c(-c3cc(O)c(O)c(O)c3)[o+]c2c1 | 26% | – |
| COc1cc(/C=C/C(=O)CC(=O)/C=C/c2ccc(O)c(OC)c2)ccc1O [CURCUMIN] | 45% | 10 µM |
| COc1cc(/C=C/c2ccc(O)cc2)cc(OC)c1 | 35% | – |
| COc1cccc(OC)c1C(=O)OCc1cc(O)ccc1O[C@@H]1O[C@H](CO)[C@@H](O)[C@H](O)[C@H]1O | 28% | – |
| OC[C@H]1O[C@@H](Oc2cc3c(O)cc(O)cc3[o+]c2-c2ccc(O)c(O)c2)[C@H](O)[C@@H](O)[C@@H]1O | 31% | – |
| O=C(O)/C=C/c1ccc(O)cc1 | 17% | – |
| Oc1cc(O)c2c(c1)O[C@H](c1cc(O)c(O)c(O)c1)[C@H](O)C2 | 18% | – |
| O=C(O[C@@H]1Cc2c(O)cc(O)cc2O[C@@H]1c1cc(O)c(O)c(O)c1)c1cc(O)c(O)c(O)c1 | 13% | – |
| COc1cc(-c2[o+]c3cc(O)cc(O)c3cc2O[C@@H]2O[C@H](CO)[C@@H](O)[C@H](O)[C@H]2O)cc(OC)c1O [OENIN] | 44% | 10 µM |
| Oc1ccc(/C=C/c2cc(O)cc(O)c2)cc1 [RESVERATROL] | 63% | 6 µM |
| O=C(O)/C=C/c1ccc(O)c(O)c1 | 15% | – |
| COc1ccc(O)c(OC)c1C(=O)OCc1ccccc1O[C@@H]1O[C@H](CO)[C@@H](O)[C@H](O)[C@H]1O [CURCULIGOSIDE D] | 49% | 9.5 µM |
| O=C(O)c1ccc(O)cc1 | 29% | – |
| COc1cccc(O)c1C(=O)OCc1cc(O)ccc1O[C@@H]1O[C@H](CO)[C@@H](O)[C@H](O)[C@H]1O [CURCULIGOSIDE B] | 53% | 8.5 µM |
| COc1cc(-c2[o+]c3cc(O)cc(O)c3cc2O)cc(OC)c1O [MALVIDIN] | 46% | 10 µM |
